Experimental data: PMC3205148 (International Journal of Nanomedicine, 2011)
Converted amounts (≈) assume the structure as drawn.

Key:
OVCAR-3 = details: day 300, OVCAR-3-bearing SCID mice; cited from earlier work
[1] = Solubility in Miglyol 812; type: physicochemical; details: Miglyol 812, oil or lipid

| solubility [1] | SMILES | Survival (OVCAR-3) |
| --- | --- | --- |
|  | CCCCCCCCCCCCCCC(Br)C(=O)O[C@@H](C(=O)O[C@H]1C[C@@]2(O)[C@@H](OC(=O)c3ccccc3)[C@@H]3[C@]4(OC(C)=O)CO[C@@H]4C[C@H](O)[C@@]3(C)C(=O)[C@H](O)C(=C1C)C2(C)C)[C@@H](NC(=O)OC(C)(C)C)c1ccccc1 (some centres unmarked) [2′-(2-bromo)-hexadecanoyl DX] | 100% |
| 36.11 ± 0.1 mg/mL (≈ 44.7 mM) | CC(=O)O[C@@]12CO[C@@H]1C[C@H](O)[C@@]1(C)C(=O)[C@H](O)C3=C(C)[C@@H](OC(=O)[C@H](O)[C@@H](NC(=O)OC(C)(C)C)c4ccccc4)C[C@@](O)([C@@H](OC(=O)c4ccccc4)[C@H]21)C3(C)C [DX, Docetaxel] |  |
